Test results published in article PMC8632988, “Inhibition of SYK and cSrc kinases can protect bone and cartilage in preclinical models of osteoarthritis and rheumatoid arthritis” (Scientific Reports, 2021).
Values joined by “and” are separate entries in the source; they are usually repeats but may differ in a detail not shown here. Equal values may be shown once.

Experiments:
Lewis rats, CIA model = assay: Collagen-induced semi-established arthritis model in rats; format: in vivo, rat
Protocol: Rat CIA model was performed was performed at Pharmenterprises, Russia and approved by Ethics Committee of Pharmenterprises. Female Lewis rats with body weight of 164–183 g (Charles River Laboratories, Inc., Wilmington, MA) were injected with porcine type II collagen (Chondrex) emulsified with Freund’s Incomplete Adjuvant (Sigma Aldrich) at two sites at the base of the tail according to standard protocol. On day 7, the rats were boosted with a second subcutaneous injection. On day 6 of the study, rats were randomized by body weight into six groups: a control group of four, and five treatment groups of eight. […] Disease progression was monitored via daily ankle thickness measurements. At study termination on day 16 rats were anesthetized with Isoflurane, bled by vacutainer through the descending aorta to exsanguinate and then euthanized for tissue collection. Hind paws were transected at the level of the medial and lateral malleolus, weighed, and collected for microscopy.
[…]

mongrel rats, AIA model = assay: Adjuvant-induced arthritis in rats; format: in vivo
Protocol: Rat adjuvant-induced arthritis (AIA) model was performed at Pharmenterprises, Russia as described previously^3 and approved by Ethics Committee of Pharmenterprises. Male 10 week old mongrel rats were divided into eleven groups: negative control (#1), positive control (#2) and nine treatment groups (#3–11), ten […] in each group. Group #1 was left intact, while subplantar injection of 0.1 mL of Complete Freund’s adjuvant (CFA, Sigma) was made on day 0 at right paws of rats in groups […]. […] Disease progression was monitored by measuring volumes of the right (involved) and left (non-involved) paws on days 0, 14, 18, 21, 25, and 28.

DYRK4 = molecular target: T1, DYRK4 (Homo sapiens, UniProt Q9NR20); assay: Kinase selectivity profile assay; format: biochemical; details: 500 nM; relative to DMSO; read-out: Residual enzymatic activity
T1 construct: purchased Reaction Biology Corporation
T1 sequence (Q9NR20 whole entry): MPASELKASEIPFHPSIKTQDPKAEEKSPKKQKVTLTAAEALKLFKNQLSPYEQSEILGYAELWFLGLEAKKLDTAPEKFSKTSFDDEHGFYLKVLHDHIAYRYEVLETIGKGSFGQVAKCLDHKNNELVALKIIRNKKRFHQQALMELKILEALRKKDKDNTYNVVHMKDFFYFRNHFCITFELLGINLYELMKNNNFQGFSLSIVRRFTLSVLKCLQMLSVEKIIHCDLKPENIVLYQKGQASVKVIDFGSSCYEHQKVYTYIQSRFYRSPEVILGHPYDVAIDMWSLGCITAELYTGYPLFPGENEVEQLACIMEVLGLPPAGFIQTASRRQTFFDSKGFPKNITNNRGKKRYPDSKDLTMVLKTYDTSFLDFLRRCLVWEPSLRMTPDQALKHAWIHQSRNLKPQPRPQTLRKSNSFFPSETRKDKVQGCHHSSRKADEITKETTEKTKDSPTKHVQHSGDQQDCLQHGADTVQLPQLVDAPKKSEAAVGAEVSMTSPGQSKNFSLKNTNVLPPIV
Protocol: The activity of MT-SYK-03 against cSrc kinase and selectivity profile towards other 341 kinases was determined at Reaction Biology Corporation (Malvern, PA, USA) using the standard kinase assay protocol. […] Kinase activity data was expressed as the percent remaining kinase activity in test samples compared to vehicle (dimethyl sulfoxide) reactions based on the radioactivity of reaction products (see Table S2). Experiment was replicated twice.

VRK2 = molecular target: T2, VRK2 (Homo sapiens, UniProt Q86Y07); assay: Kinase selectivity profile assay; format: biochemical; details: 500 nM; relative to DMSO; read-out: Residual enzymatic activity
T2 construct: purchased Reaction Biology Corporation
T2 sequence (Q86Y07 whole entry): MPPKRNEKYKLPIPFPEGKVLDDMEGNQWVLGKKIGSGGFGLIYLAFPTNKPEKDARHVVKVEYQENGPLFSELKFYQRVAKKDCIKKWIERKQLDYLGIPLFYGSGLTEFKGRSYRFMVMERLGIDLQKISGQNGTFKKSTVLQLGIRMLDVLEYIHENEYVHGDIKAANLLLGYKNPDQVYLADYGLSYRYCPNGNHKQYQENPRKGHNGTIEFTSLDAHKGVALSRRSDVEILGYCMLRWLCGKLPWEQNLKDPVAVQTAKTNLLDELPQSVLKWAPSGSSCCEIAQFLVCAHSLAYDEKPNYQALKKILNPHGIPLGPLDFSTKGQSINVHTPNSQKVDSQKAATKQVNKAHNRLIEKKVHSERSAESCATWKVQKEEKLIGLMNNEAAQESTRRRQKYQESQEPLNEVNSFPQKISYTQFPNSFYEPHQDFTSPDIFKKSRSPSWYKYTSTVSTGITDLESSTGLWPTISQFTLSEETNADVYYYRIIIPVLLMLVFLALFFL
Method in brief: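 Radiometric kinase assay run by a standard protocol. Unbound phosphate was removed by washing filters in phosphoric acid, and product radioactivity gave percent remaining kinase activity versus DMSO vehicle reactions. Run in duplicate.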

c-Src = molecular target: T3, c-Src (Homo sapiens, UniProt P12931); assay: cSrc inhibition and kinase selectivity profile assay; format: biochemical
T3 construct: purchased Reaction Biology Corporation (assay service)
T3 sequence (P12931 whole entry): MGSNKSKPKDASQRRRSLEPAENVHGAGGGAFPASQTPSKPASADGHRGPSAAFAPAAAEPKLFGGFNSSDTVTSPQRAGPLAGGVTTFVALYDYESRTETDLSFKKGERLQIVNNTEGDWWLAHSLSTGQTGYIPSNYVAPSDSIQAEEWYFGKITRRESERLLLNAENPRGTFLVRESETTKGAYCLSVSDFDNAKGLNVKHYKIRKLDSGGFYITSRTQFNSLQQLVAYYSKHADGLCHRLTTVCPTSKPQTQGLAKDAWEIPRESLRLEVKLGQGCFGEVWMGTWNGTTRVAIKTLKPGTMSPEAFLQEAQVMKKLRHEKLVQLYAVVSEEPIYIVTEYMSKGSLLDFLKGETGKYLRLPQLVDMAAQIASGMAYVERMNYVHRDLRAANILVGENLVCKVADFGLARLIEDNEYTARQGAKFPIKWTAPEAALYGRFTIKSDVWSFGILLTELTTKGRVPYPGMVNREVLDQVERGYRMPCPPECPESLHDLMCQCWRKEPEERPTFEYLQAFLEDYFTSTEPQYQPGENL
Protocol: The activity of MT-SYK-03 against cSrc kinase and selectivity profile towards other 341 kinases was determined at Reaction Biology Corporation (Malvern, PA, USA) using the standard kinase assay protocol. […]; unbound phosphate was removed by extensive washing of filters in phosphoric acid. Kinase activity data was expressed as the percent remaining kinase activity in test samples compared to vehicle (dimethyl sulfoxide) reactions based on the radioactivity of reaction products (see Table S2). Experiment was replicated twice.

[1] = knee, day 16, MT-SYK-03 207 mg/kg PO BID + MTX Veh PO QD, individual joint (animal, R/L), 207 mg/kg
[2] = knee, day 16, MT-SYK-03 207 mg/kg PO BID + MTX Veh PO QD, vs vehicle

## COc1cc(Nc2ncnc(Nc3cc4c(cn3)NC(=O)C(C)(C)O4)n2)cc(OC)c1OC [MT-SYK-03]
Lewis rats, CIA model; [1]
  Bone Resorption score (0=normal to 5=severe): 0.5 and 1 and 0
  Cartilage Damage score (0=normal to 5=severe): 1 and 0 and 0.5
  Inflammation score (0=normal to 5=severe): 4 and 1 and 0 and 2 and 3 and 0.5
  Pannus score (0=normal to 5=severe): 0.5 and 1 and 0
  Summed Histopathology Scores: 6 and 7 and 2.5 and 0 and 3 and 4.5 and 2 and 5 and 5.5 and 3.5 and 0.5
Lewis rats, CIA model; knee, day 16, MT-SYK-03 207 mg/kg PO BID + MTX Veh PO QD, p value
  Bone Resorption score, ANOVA to Vehicle: p < 0.05
Lewis rats, CIA model; [2]
  Bone Resorption score, % inhibition: 78%
  Cartilage Damage score, % inhibition: 57%
  Inflammation score, % inhibition: 50%
  Pannus score, % inhibition: 46%
  Summed Histopathology Scores, % inhibition: 56%
Lewis rats, CIA model; rat CIA, day 16
  Histopathology scores for cartilage damage and bone resorption, ankles and knees: chondroprotective and antiresorptive effects
  Histopathology scores of inflammation and pannus formation: smaller
  Relative weights of thymus, liver and spleen: statistically identical across all groups
Mongrel rats, AIA model; MT-SYK-03 52 mg/kg BID intragastric, 14 days
  Animal death: 0%
Mongrel rats, AIA model; MT-SYK-03 52 mg/kg BID intragastric, 18 days
  Animal death: 0%
Mongrel rats, AIA model; MT-SYK-03 52 mg/kg BID intragastric, 21 days
  Animal death: 0%
Mongrel rats, AIA model; MT-SYK-03 52 mg/kg BID intragastric, 25 days
  Animal death: 0%
Mongrel rats, AIA model; MT-SYK-03 52 mg/kg BID intragastric, 28 days
  Animal death: 0%
Mongrel rats, AIA model; MT-SYK-03 103 mg/kg BID intragastric, 14 days
  Animal death: 0%
Mongrel rats, AIA model; MT-SYK-03 103 mg/kg BID intragastric, 18 days
  Animal death: 0%
Mongrel rats, AIA model; MT-SYK-03 103 mg/kg BID intragastric, 21 days
  Animal death: 0%
Mongrel rats, AIA model; MT-SYK-03 103 mg/kg BID intragastric, 25 days
  Animal death: 0%
Mongrel rats, AIA model; MT-SYK-03 103 mg/kg BID intragastric, 28 days
  Animal death: 0%
Mongrel rats, AIA model; MT-SYK-03 207 mg/kg QD intragastric, 14 days
  Animal death: 0%
Mongrel rats, AIA model; MT-SYK-03 207 mg/kg QD intragastric, 18 days
  Animal death: 0%
Mongrel rats, AIA model; MT-SYK-03 207 mg/kg QD intragastric, 21 days
  Animal death: 0%
Mongrel rats, AIA model; MT-SYK-03 207 mg/kg QD intragastric, 25 days
  Animal death: 0%
Mongrel rats, AIA model; MT-SYK-03 207 mg/kg QD intragastric, 28 days
  Animal death: 0%
Mongrel rats, AIA model; non-involved paws, MT-SYK-03 52 mg/kg BID intragastric, 18 days
  The increase in the volume of the paws relative to the initial level: 22.55±2.93& %
Mongrel rats, AIA model; non-involved paws, MT-SYK-03 52 mg/kg BID intragastric, 21 days
  The increase in the volume of the paws relative to the initial level: 23.66±3.25& %
Mongrel rats, AIA model; non-involved paws, MT-SYK-03 52 mg/kg BID intragastric, 25 days
  The increase in the volume of the paws relative to the initial level: 24.39±2.8& %
Mongrel rats, AIA model; non-involved paws, MT-SYK-03 52 mg/kg BID intragastric, 28 days
  The increase in the volume of the paws relative to the initial level: 25.25±2.86& %
Mongrel rats, AIA model; non-involved paws, MT-SYK-03 103 mg/kg BID intragastric, 14 days
  The increase in the volume of the paws relative to the initial level: 11.22±1.26& %
Mongrel rats, AIA model; non-involved paws, MT-SYK-03 103 mg/kg BID intragastric, 18 days
  The increase in the volume of the paws relative to the initial level: 17.42±1.16& %
Mongrel rats, AIA model; non-involved paws, MT-SYK-03 103 mg/kg BID intragastric, 21 days
  The increase in the volume of the paws relative to the initial level: 20.38±2.11& %
Mongrel rats, AIA model; non-involved paws, MT-SYK-03 103 mg/kg BID intragastric, 25 days
  The increase in the volume of the paws relative to the initial level: 22.35±2.28& %
Mongrel rats, AIA model; non-involved paws, MT-SYK-03 103 mg/kg BID intragastric, 28 days
  The increase in the volume of the paws relative to the initial level: 21.41±2.05&# %
Mongrel rats, AIA model; non-involved paws, MT-SYK-03 207 mg/kg QD intragastric, 14 days
  The increase in the volume of the paws relative to the initial level: 14.3±1.82& %
Mongrel rats, AIA model; non-involved paws, MT-SYK-03 207 mg/kg QD intragastric, 18 days
  The increase in the volume of the paws relative to the initial level: 19.97±1.89& %
Mongrel rats, AIA model; non-involved paws, MT-SYK-03 207 mg/kg QD intragastric, 21 days
  The increase in the volume of the paws relative to the initial level: 21.15±1.89& %
Mongrel rats, AIA model; non-involved paws, MT-SYK-03 207 mg/kg QD intragastric, 25 days
  The increase in the volume of the paws relative to the initial level: 22.51±1.61& %
Mongrel rats, AIA model; non-involved paws, MT-SYK-03 207 mg/kg QD intragastric, 28 days
  The increase in the volume of the paws relative to the initial level: 21.94±1.37&# %
Mongrel rats, AIA model; po, 52 mg/kg, 336 h
  The increase in the volume of the paws relative to the initial level: 13.93±1.83& %
Mongrel rats, AIA model; rat AIA, MT-SYK-03
  Rats died: 0%
Mongrel rats, AIA model; rat AIA, MT-SYK-03 103 and 207 mg/kg, day 28
  Volume of non-involved paws: decreased the volume of non-involved paws
Mongrel rats, AIA model; treated paws, MT-SYK-03 52 mg/kg BID intragastric, 14 days
  The increase in the volume of the paws relative to the initial level: 77.6 ± 4.53 & %
Mongrel rats, AIA model; treated paws, MT-SYK-03 52 mg/kg BID intragastric, 18 days
  The increase in the volume of the paws relative to the initial level: 85.72 ± 3.7 & %
Mongrel rats, AIA model; treated paws, MT-SYK-03 52 mg/kg BID intragastric, 21 days
  The increase in the volume of the paws relative to the initial level: 88.24 ± 4.4 & %
Mongrel rats, AIA model; treated paws, MT-SYK-03 52 mg/kg BID intragastric, 25 days
  The increase in the volume of the paws relative to the initial level: 94.75 ± 7.18 & %
Mongrel rats, AIA model; treated paws, MT-SYK-03 52 mg/kg BID intragastric, 28 days
  The increase in the volume of the paws relative to the initial level: 93.88 ± 6.77 & %
Mongrel rats, AIA model; treated paws, MT-SYK-03 103 mg/kg BID intragastric, 14 days
  The increase in the volume of the paws relative to the initial level: 76.18 ± 7.73 & %
Mongrel rats, AIA model; treated paws, MT-SYK-03 103 mg/kg BID intragastric, 18 days
  The increase in the volume of the paws relative to the initial level: 85.98 ± 7.51 & %
Mongrel rats, AIA model; treated paws, MT-SYK-03 103 mg/kg BID intragastric, 21 days
  The increase in the volume of the paws relative to the initial level: 86.55 ± 8.13 & %
Mongrel rats, AIA model; treated paws, MT-SYK-03 103 mg/kg BID intragastric, 25 days
  The increase in the volume of the paws relative to the initial level: 86.47 ± 7.89 & %
Mongrel rats, AIA model; treated paws, MT-SYK-03 103 mg/kg BID intragastric, 28 days
  The increase in the volume of the paws relative to the initial level: 89.02 ± 7.37 & %
Mongrel rats, AIA model; treated paws, MT-SYK-03 207 mg/kg QD intragastric, 14 days
  The increase in the volume of the paws relative to the initial level: 81.54 ± 6.88 & %
Mongrel rats, AIA model; treated paws, MT-SYK-03 207 mg/kg QD intragastric, 18 days
  The increase in the volume of the paws relative to the initial level: 82.92 ± 6.64 & %
Mongrel rats, AIA model; treated paws, MT-SYK-03 207 mg/kg QD intragastric, 21 days
  The increase in the volume of the paws relative to the initial level: 83.22 ± 6.53 & %
Mongrel rats, AIA model; treated paws, MT-SYK-03 207 mg/kg QD intragastric, 25 days
  The increase in the volume of the paws relative to the initial level: 88.58 ± 7.8 & %
Mongrel rats, AIA model; treated paws, MT-SYK-03 207 mg/kg QD intragastric, 28 days
  The increase in the volume of the paws relative to the initial level: 93.67 ± 9.08 & %
DYRK4
  remaining activity at 0.5 µM: 104%
VRK2
  remaining activity at 0.5 µM: 129%
c-Src
  IC50: 14.2 nM and 23 to 40 nM and 14 nM
c-Src; 500 nM, relative to DMSO, read-out: Residual enzymatic activity
  remaining activity at 0.5 µM: 6.2%
